Source: PMC5766233, “Ternary copper(II) complex: NCI60 screening, toxicity studies, and evaluation of efficacy in xenograft models of nasopharyngeal carcinoma” (PLoS ONE, 2018)

What was measured:
[1] = Hematotoxicity evaluation (blood, spleen, bone marrow) in xenograft bearing mice; assay type: in vivo, NOD scid gamma female mice; conditions: for Band neutrophil / Basophils / Eosinophils / Hemoglobin / Lymphocytes / MCHC / MCV / Monocytes / PVC / Plasma protein / RBC / Segmented neutrophil / Thrombocytes / WBC: C666-1-GFP-Luc2 xenograft mice, mean ± SEM
Protocol: Values of hematological parameters of mice bearing C666-1-GFP-Luc2, an Epstein-barr virus (EBV) positive NPC cell line xenografts which were treated with 4 and 5 mg/kg of the Cu(II) complex were compared with those from control groups (Table 3). […] This indicated absence of anemia.
We further investigated the effects of Cu(II) complex on spleen and bone marrow (from femur) responses.
Blood samples were collected into BD Microtainer Tubes containing dipotassium EDTA (Becton, Dickinson and Company, New Jersey, USA) and submitted to the Veterinary Laboratory Services Unit, Faculty of Veterinary Medicine, Universiti Putra Malaysia, Serdang, Malaysia, for full blood count (FBC) analysis.
Major organs, bones and excised tumors were preserved in 10% neutral buffered formaldehyde solution (Leica Biosystems, Germany) for 24 to 48 h and subsequently processed into formalin-fixed paraffin-embedded tissue blocks following standard tissue processing protocol using Leica ASP300 S (Leica Biosystems, Nussloch, Germany). Fixed bones (skull, femur and tibia) were decalcified with Surgipath Decalcifier I (Leica Biosystems, Germany) for 4 to 6 h depending on size before tissue processing. After paraffin embedding, tissue blocks were sectioned ([…]) using rotary microtome Microm HM340E (Thermo Scientific, Walldorf, Germany) and stained with hematoxylin and eosin (H&E) dyes using Leica Autostainer XL (Leica Biosystems, Nussloch, Germany) before histopathological examination.
All H&E-stained tissue section slides were examined under Nikon Eclipse Ni microscope (Nikon Instruments Inc., New York, USA) and microscopic images were taken using 20x and 40x objectives. For H&E tumor section slides, the percentage of tumor necrosis was determined qualitatively using microscope by the histopathologist in order to estimate the percentage of necrotic area induced by the Cu(II) complex in the tumors. For determination of femoral bone marrow suppression, low power (10x magnification) objective was used to scan the slides while 100x magnification to assess the degree of cellularity and amount of fat present.

[2] = test system: CYP1A; experiment: Cytochrome P450 induction assay in rat primary hepatocytes, CYP1A; assay type: in vitro ADME; conditions: for Fold induction CYP1A: 3 days; for % of positive control CYP1A: positive control 3-methyl cholanthrene 1.0 μM
Excerpt: %Activity=(averagearearatiooftreated/averagearearatioofbasalcontrol)x100

[3] = molecular target: T1, CYP 2B6 (Homo sapiens, UniProt P20813); experiment: CYP450 inhibition assay, pooled human liver microsomes; conditions: read-out: IC50 CYP 2B6; probe bupropion
T1 sequence (P20813 1-491): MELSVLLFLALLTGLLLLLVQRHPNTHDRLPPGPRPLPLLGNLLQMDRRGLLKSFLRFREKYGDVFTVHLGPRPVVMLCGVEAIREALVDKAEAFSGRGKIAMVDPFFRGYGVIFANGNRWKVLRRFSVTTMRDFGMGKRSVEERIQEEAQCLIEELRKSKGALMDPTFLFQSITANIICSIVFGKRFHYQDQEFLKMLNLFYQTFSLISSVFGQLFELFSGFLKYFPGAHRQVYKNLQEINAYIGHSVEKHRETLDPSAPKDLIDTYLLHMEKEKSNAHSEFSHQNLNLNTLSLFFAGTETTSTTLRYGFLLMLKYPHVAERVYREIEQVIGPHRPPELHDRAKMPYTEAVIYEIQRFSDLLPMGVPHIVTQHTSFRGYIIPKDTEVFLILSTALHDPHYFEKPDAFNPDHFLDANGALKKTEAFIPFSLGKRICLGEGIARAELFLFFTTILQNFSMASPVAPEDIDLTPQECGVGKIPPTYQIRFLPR
Protocol: In the CYP inhibition assay, human liver microsomes were incubated with the Cu(II) complex or reference standard. The inhibitory effects of these compounds were investigated against the major CYP isoforms namely 1A2, 2C9, 2C19, 2D6, 2B6, 2C8 and 3A4 with their respective isoform probe substrates in one reaction mixture (pooled probe substrate format using LC-MS/MS).
Pooled human liver microsomes (Sekisui Xeno Tech, LLC., Kansas City, KS, USA) were incubated with different concentrations of Cu(II) complex or reference standards in buffer containing 0.1% DMSO for 10 min at 37°C and the residual enzyme activity was measured using pooled probe substrates method by pooled LC-MS/MS. Briefly, incubation mixtures were prepared in a total volume of 200 μL with final component concentrations as follows: 0.1 M potassium phosphate buffer (pH 7.4), 1.5 mM NADPH, and 0.25 mg/ml HLM. […] After 20 min of incubation, the reactions were terminated by addition of 200 μL ice-cold acetonitrile (Rankem, Avantor Performance Materials India Limited, Andhra Pradesh, India) containing telmisartan and carbamazepine as internal standards (all probe substrates and standards were from Sigma Aldrich). Each reaction mixture was centrifuged at 3,500 rpm for 5 min and the supernatant was subjected to LC-MS/MS analysis. The percent inhibition was calculated using the following equation: %Inhibition=100‑[(activityintestwells/activityinbasalcontrolwells)×100]

CC(C)(N)C(=O)[O-].O.O=[N+]([O-])[O-].[Cu+2].c1cnc2c(c1)ccc1cccnc12 [Cu(II) complex, [Cu(phen)(C-dmg)(H2O)]NO3]
Band neutrophil ([1]; 4 mg/kg): 0.1 ± 0.0 x10^9/L | Basophils ([1]; 4 mg/kg): 0.0 ± 0.0 x10^9/L | Eosinophils ([1]; 4 mg/kg): 0.0 ± 0.0 x10^9/L | Hemoglobin ([1]; 4 mg/kg): 126.8 ± 10.0 g/L | Lymphocytes ([1]; 4 mg/kg): 0.2 ± 0.0 x10^9/L | MCHC ([1]; 4 mg/kg): 308.5 ± 4.9 g/L | MCV ([1]; 4 mg/kg): 52.9 ± 1.2 fL | Monocytes ([1]; 4 mg/kg): 0.2 ± 0.1 x10^9/L | PVC ([1]; 4 mg/kg): 0.4 ± 0.0 L/L | Plasma protein ([1]; 4 mg/kg): 59.5 ± 2.2 g/L | RBC ([1]; 4 mg/kg): 7.8 ± 0.7 x10^12/L | Segmented neutrophil ([1]; 4 mg/kg): 2.0 ± 0.4 x10^9/L | Thrombocytes ([1]; 4 mg/kg): 1659.0 ± 120.4 x10^9/L | WBC ([1]; 4 mg/kg): 2.5 ± 0.5 x10^9/L | Band neutrophil ([1]; 5 mg/kg): 0.1 ± 0.0 x10^9/L | Basophils ([1]; 5 mg/kg): 0.0 ± 0.0 x10^9/L | Eosinophils ([1]; 5 mg/kg): 0.0 ± 0.0 x10^9/L | Hemoglobin ([1]; 5 mg/kg): 133.7 ± 4.4 g/L | Lymphocytes ([1]; 5 mg/kg): 0.1 ± 0.0 x10^9/L | MCHC ([1]; 5 mg/kg): 308.3 ± 5.0 g/L | MCV ([1]; 5 mg/kg): 56.2 ± 1.8 fL | Monocytes ([1]; 5 mg/kg): 0.2 ± 0.0 x10^9/L | PVC ([1]; 5 mg/kg): 0.4 ± 0.0 L/L | Plasma protein ([1]; 5 mg/kg): 55.7 ± 2.5 g/L | RBC ([1]; 5 mg/kg): 7.8 ± 0.4 x10^12/L | Segmented neutrophil ([1]; 5 mg/kg): 2.5 ± 0.2 ^* x10^9/L | Thrombocytes ([1]; 5 mg/kg): 1288.2 ± 155.8 x10^9/L | WBC ([1]; 5 mg/kg): 2.9 ± 0.3 ^* x10^9/L | spleen weight ([1]; C666-1-GFP-Luc2 bearing mice, 5 and 6 mg/kg, vs control groups): significantly lower weight | spleen weight ([1]; HK1 bearing mice, 4, 6 and 8 mg/kg): did not show weight loss | bone marrow suppression (femur) ([1]; all treated groups): no evidence of bone marrow suppression | Fold induction CYP1A ([2]; 0.1 μM): 1.1 | % of positive control CYP1A ([2]; 0.1 μM): 10.1% | Fold induction CYP1A ([2]; 0.3 μM): 1.4 | % of positive control CYP1A ([2]; 0.3 μM): 13.0% | Fold induction CYP1A ([2]; 1.0 μM): 0.8 | % of positive control CYP1A ([2]; 1.0 μM): 7.4% | induction, % of positive control, CYP1A ([2]; 0.1-1.0 μM): < 13% | IC50 [3]: 7.59 µM
